Measured values published in article PMC12266337 (Biochemistry, 2025).
Where a SMILES comes first, the peptide text is derived from it. Where no end group is shown, it is not given here. [ ]: non-standard residue; d: D form.

Each molecule was assayed against T1, ComD receptor (Streptococcus constellatus, UniProt O33616) (assay: Luciferase reporter activation). Conditions: not given.
Assay type: cell-based

Q: How did the EC50 turn out when DSRIRAGFDFSKLFGK [CSP M6A] was run?
A: Its EC50 is 1.9 nM.

Q: With `CC[C@H](C)[C@H](NC(=O)[C@@H](CCCNC(=N)N)NC(=O)[C@H](CO)NC(=O)[C@@H](N)CC(=O)O)C(=O)N[C@@H](CCCNC(=N)N)C(=O)N[C@@H](CCSC)C(=O)NCC(=O)N[C@@H](Cc1ccccc1)C(=O)N[C@@H](CC(=O)O)C(=O)N[C@@H](Cc1ccccc1)C(=O)N[C@@H](CO)C(=O)N[C@@H](CCCCN)C(=O)N[C@@H](CC(C)C)C(=O)N[C@@H](Cc1ccccc1)C(=O)NCC(=O)N[C@@H](CCCCN)C(=O)O` [CSP-r3] (H-DS[dR]IRMGFDFSKLFGK-OH) as the molecule, how does the EC50 read?
A: The EC50 was 13 nM.

Q: Which EC50 does the source give for DARIRMGFDFSKLFGK [CSP S2A] here?
A: The EC50 was 5.6 nM.

Q: How did the EC50 turn out when `CC[C@H](C)[C@H](NC(=O)[C@H](CCCNC(=N)N)NC(=O)[C@@H](CO)NC(=O)[C@@H](N)CC(=O)O)C(=O)N[C@@H](CCCNC(=N)N)C(=O)N[C@@H](CCSC)C(=O)NCC(=O)N[C@@H](Cc1ccccc1)C(=O)N[C@@H](CC(=O)O)C(=O)N[C@@H](Cc1ccccc1)C(=O)N[C@@H](CO)C(=O)N[C@@H](CCCCN)C(=O)N[C@@H](CC(C)C)C(=O)N[C@@H](Cc1ccccc1)C(=O)NCC(=O)N[C@@H](CCCCN)C(=O)O` [CSP-s2] (H-D[dS]RIRMGFDFSKLFGK-OH) was run?
A: The EC50 was 7.9 nM.

Q: How did the EC50 turn out when `CC[C@H](C)[C@H](NC(=O)[C@H](CCCNC(=N)N)NC(=O)[C@H](CO)NC(=O)[C@H](N)CC(=O)O)C(=O)N[C@@H](CCCNC(=N)N)C(=O)N[C@@H](CCSC)C(=O)NCC(=O)N[C@@H](Cc1ccccc1)C(=O)N[C@@H](CC(=O)O)C(=O)N[C@@H](Cc1ccccc1)C(=O)N[C@@H](CO)C(=O)N[C@@H](CCCCN)C(=O)N[C@@H](CC(C)C)C(=O)N[C@@H](Cc1ccccc1)C(=O)NCC(=O)N[C@@H](CCCCN)C(=O)O` [CSP-d1] (H-[dD]SRIRMGFDFSKLFGK-OH) was run?
A: Its EC50 is 9.7 nM.

Q: DSRIRMGFDFSKLFGA [CSP K16A] was tested. Which EC50 did it give?
A: The EC50 was 2.5 nM.

Q: Which EC50 does the source give for `CC[C@H](C)[C@H](NC(=O)[C@H](CCCNC(=N)N)NC(=O)[C@H](CO)NC(=O)[C@@H](N)CC(=O)O)C(=O)N[C@@H](CCCNC(=N)N)C(=O)N[C@@H](CCSC)C(=O)NCC(=O)N[C@@H](Cc1ccccc1)C(=O)N[C@@H](CC(=O)O)C(=O)N[C@@H](Cc1ccccc1)C(=O)N[C@@H](CO)C(=O)N[C@@H](CCCCN)C(=O)N[C@@H](CC(C)C)C(=O)N[C@@H](Cc1ccccc1)C(=O)NCC(=O)N[C@H](CCCCN)C(=O)O` [CSP-k16] (H-DSRIRMGFDFSKLFG[dK]-OH) here?
A: Its EC50 is 1.7 nM.

Q: With DSRARMGFDFSKLFGK [CSP I4A] as the molecule, how does the EC50 read?
A: Its EC50 is 0.089 nM.

Q: How did the EC50 turn out when `CC[C@H](C)[C@H](NC(=O)[C@H](CCCNC(=N)N)NC(=O)[C@H](CO)NC(=O)[C@@H](N)CC(=O)O)C(=O)N[C@H](CCCNC(=N)N)C(=O)N[C@@H](CCSC)C(=O)NCC(=O)N[C@@H](Cc1ccccc1)C(=O)N[C@@H](CC(=O)O)C(=O)N[C@@H](Cc1ccccc1)C(=O)N[C@@H](CO)C(=O)N[C@@H](CCCCN)C(=O)N[C@@H](CC(C)C)C(=O)N[C@@H](Cc1ccccc1)C(=O)NCC(=O)N[C@@H](CCCCN)C(=O)O` [CSP-r5] (H-DSRI[dR]MGFDFSKLFGK-OH) was run?
A: The EC50 was 47 nM.

Q: DSRIAMGFDFSKLFGK [CSP R5A] was tested. Which EC50 did it give?
A: The EC50 was 4.8 nM.

Q: With `CC[C@H](C)[C@H](NC(=O)[C@H](CCCNC(=N)N)NC(=O)[C@H](CO)NC(=O)[C@@H](N)CC(=O)O)C(=O)N[C@@H](CCCNC(=N)N)C(=O)N[C@@H](CCSC)C(=O)NCC(=O)N[C@@H](Cc1ccccc1)C(=O)N[C@@H](CC(=O)O)C(=O)N[C@@H](Cc1ccccc1)C(=O)N[C@@H](CO)C(=O)N[C@H](CCCCN)C(=O)N[C@@H](CC(C)C)C(=O)N[C@@H](Cc1ccccc1)C(=O)NCC(=O)N[C@@H](CCCCN)C(=O)O` [CSP-k12] (H-DSRIRMGFDFS[dK]LFGK-OH) as the molecule, how does the EC50 read?
A: The EC50 was 3.7 nM.

Q: “DSRIRMGFDFSKLFGK [Native CSP, reference compound]” was tested. Which EC50 did it give?
A: Its EC50 is 5.2 nM.

Q: Which EC50 does the source give for `CC[C@H](C)[C@H](NC(=O)[C@H](CCCNC(=N)N)NC(=O)[C@H](CO)NC(=O)[C@@H](N)CC(=O)O)C(=O)N[C@@H](CCCNC(=N)N)C(=O)N[C@@H](CCSC)C(=O)NCC(=O)N[C@@H](Cc1ccccc1)C(=O)N[C@@H](CC(=O)O)C(=O)N[C@@H](Cc1ccccc1)C(=O)N[C@@H](CO)C(=O)N[C@@H](CCCCN)C(=O)N[C@@H](CC(C)C)C(=O)N[C@H](Cc1ccccc1)C(=O)NCC(=O)N[C@@H](CCCCN)C(=O)O` [CSP-f14] (H-DSRIRMGFDFSKL[dF]GK-OH) here?
A: The EC50 was 2 nM.

Q: For `CC[C@@H](C)[C@@H](NC(=O)[C@H](CCCNC(=N)N)NC(=O)[C@H](CO)NC(=O)[C@@H](N)CC(=O)O)C(=O)N[C@@H](CCCNC(=N)N)C(=O)N[C@@H](CCSC)C(=O)NCC(=O)N[C@@H](Cc1ccccc1)C(=O)N[C@@H](CC(=O)O)C(=O)N[C@@H](Cc1ccccc1)C(=O)N[C@@H](CO)C(=O)N[C@@H](CCCCN)C(=O)N[C@@H](CC(C)C)C(=O)N[C@@H](Cc1ccccc1)C(=O)NCC(=O)N[C@@H](CCCCN)C(=O)O` [CSP-i4] (H-DSR[dI]RMGFDFSKLFGK-OH), which EC50 is on record?
A: Its EC50 is 25 nM.

Q: For `CC[C@H](C)[C@H](NC(=O)[C@H](CCCNC(=N)N)NC(=O)[C@H](CO)NC(=O)[C@@H](N)CC(=O)O)C(=O)N[C@@H](CCCNC(=N)N)C(=O)N[C@@H](CCSC)C(=O)NCC(=O)N[C@@H](Cc1ccccc1)C(=O)N[C@@H](CC(=O)O)C(=O)N[C@@H](Cc1ccccc1)C(=O)N[C@@H](CO)C(=O)N[C@@H](CCCCN)C(=O)N[C@H](CC(C)C)C(=O)N[C@@H](Cc1ccccc1)C(=O)NCC(=O)N[C@@H](CCCCN)C(=O)O` [CSP-l13] (H-DSRIRMGFDFSK[dL]FGK-OH), which EC50 is on record?
A: Its EC50 is 25 nM.

Q: With `CC[C@H](C)[C@H](NC(=O)[C@H](CCCNC(=N)N)NC(=O)[C@H](CO)NC(=O)[C@@H](N)CC(=O)O)C(=O)N[C@@H](CCCNC(=N)N)C(=O)N[C@H](CCSC)C(=O)NCC(=O)N[C@@H](Cc1ccccc1)C(=O)N[C@@H](CC(=O)O)C(=O)N[C@@H](Cc1ccccc1)C(=O)N[C@@H](CO)C(=O)N[C@@H](CCCCN)C(=O)N[C@@H](CC(C)C)C(=O)N[C@@H](Cc1ccccc1)C(=O)NCC(=O)N[C@@H](CCCCN)C(=O)O` [CSP-m6] (H-DSRIR[dM]GFDFSKLFGK-OH) as the molecule, how does the EC50 read?
A: The EC50 was 35 nM.

Same assay, conditions: ΔcomC PcomX::luc reporter, agonism screening

Q: How did the “QS activation (result in words)” value turn out when DSRIRMGFDFSKLAGK [CSP F14A] was run?
A: Its value is “abolished QS activation”.

Q: For DSAIRMGFDFSKLFGK [CSP R3A], which “QS activation (result in words)” value is on record?
A: The value was “complete loss of function”.

The molecules below were run against T1, ComD receptor (assay: not given). Conditions: not given.
Assay type: cell-based

Q: With ASRIRMGFDFSKLFGK [CSP D1A] as the molecule, how does the IC50 read?
A: The IC50 was 120 nM.
